The source of these data is US11008314B2, “Compounds and methods for modulating interleukin-2-inducible t-cell kinase” (CORVUS PHARMACEUTICALS, INC., priority 2016, dated 2021).

Common to all, as to format: biochemical
For one assay, the target named is ITK (Homo sapiens (Human), UniProt Q08881). The experiment in a line: IC50 against ITK.
The next assay addresses JAK3 (Homo sapiens (Human), UniProt P52333). The experiment in a line: IC50 against JAK3.
The target in another assay is BTK (Homo sapiens (Human), UniProt Q06187). Briefly: IC50 against BTK.
Chain of BTK (Q06187 whole entry, species assumed): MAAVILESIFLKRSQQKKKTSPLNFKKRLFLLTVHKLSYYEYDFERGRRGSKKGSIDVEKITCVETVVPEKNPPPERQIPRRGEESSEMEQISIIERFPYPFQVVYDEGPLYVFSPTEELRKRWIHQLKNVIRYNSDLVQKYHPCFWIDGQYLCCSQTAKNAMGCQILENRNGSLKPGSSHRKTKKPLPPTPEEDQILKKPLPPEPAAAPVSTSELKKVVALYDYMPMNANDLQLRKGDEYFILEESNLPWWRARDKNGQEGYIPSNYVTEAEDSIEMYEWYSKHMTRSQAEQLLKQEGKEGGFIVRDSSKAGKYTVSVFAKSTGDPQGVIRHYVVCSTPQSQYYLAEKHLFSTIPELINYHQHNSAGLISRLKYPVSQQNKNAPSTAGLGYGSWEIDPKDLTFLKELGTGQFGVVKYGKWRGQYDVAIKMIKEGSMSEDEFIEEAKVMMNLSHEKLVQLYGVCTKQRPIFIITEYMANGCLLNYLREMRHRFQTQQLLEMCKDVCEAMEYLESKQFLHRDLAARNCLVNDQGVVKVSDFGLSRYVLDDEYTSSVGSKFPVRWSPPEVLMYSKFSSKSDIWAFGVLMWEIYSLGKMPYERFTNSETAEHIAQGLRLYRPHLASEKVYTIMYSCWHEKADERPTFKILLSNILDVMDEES
The target of a further assay is TXK (Homo sapiens (Human), UniProt P42681). The experiment in a line: IC50 against TXK. The settings on record: for TXK/ITK: ratio of TXK IC50 to ITK IC50.
Chain of TXK (P42681 whole entry, species assumed): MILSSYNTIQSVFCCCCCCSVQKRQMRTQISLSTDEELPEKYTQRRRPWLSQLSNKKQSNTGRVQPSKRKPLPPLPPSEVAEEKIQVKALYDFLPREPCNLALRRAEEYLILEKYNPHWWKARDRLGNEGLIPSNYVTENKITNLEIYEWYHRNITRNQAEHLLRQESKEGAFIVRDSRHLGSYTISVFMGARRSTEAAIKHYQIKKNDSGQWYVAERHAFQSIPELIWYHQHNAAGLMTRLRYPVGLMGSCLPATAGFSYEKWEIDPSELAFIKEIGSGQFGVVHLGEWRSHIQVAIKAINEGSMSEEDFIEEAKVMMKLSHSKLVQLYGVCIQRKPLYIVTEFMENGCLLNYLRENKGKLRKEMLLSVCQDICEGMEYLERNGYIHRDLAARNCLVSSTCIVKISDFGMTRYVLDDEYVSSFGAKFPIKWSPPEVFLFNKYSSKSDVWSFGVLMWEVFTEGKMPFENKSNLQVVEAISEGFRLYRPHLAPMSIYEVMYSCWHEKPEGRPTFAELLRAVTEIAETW

Some results are limits rather than exact numbers.

Chain of JAK3 (P52333 whole entry, species assumed): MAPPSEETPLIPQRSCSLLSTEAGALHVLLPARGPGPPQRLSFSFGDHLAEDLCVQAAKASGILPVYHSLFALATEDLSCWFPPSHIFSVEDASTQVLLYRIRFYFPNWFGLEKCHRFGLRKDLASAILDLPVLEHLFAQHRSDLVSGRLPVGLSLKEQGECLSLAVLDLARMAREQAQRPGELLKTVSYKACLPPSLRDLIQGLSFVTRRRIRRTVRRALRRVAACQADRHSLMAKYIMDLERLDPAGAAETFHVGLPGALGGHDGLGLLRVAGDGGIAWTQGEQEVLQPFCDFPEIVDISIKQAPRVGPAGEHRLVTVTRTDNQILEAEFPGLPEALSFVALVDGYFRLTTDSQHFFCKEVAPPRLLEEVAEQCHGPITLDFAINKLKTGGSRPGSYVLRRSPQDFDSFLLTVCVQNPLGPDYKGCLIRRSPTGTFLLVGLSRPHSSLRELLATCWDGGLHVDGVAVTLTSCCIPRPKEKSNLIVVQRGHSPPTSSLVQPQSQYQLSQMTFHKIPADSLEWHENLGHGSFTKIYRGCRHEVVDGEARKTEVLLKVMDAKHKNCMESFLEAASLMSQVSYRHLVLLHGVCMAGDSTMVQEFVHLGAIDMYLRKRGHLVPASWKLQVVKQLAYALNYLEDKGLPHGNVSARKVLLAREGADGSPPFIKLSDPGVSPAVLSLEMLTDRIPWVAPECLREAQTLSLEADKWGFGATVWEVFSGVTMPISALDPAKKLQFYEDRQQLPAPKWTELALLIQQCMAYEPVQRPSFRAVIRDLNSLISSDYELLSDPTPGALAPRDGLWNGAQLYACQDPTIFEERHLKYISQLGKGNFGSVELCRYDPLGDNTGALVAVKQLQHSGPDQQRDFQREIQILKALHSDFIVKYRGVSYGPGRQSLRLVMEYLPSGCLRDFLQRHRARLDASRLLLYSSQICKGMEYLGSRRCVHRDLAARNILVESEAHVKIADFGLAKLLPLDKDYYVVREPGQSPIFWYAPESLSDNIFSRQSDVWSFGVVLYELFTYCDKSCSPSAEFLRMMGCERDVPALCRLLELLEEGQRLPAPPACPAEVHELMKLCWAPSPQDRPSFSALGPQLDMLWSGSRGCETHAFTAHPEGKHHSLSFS
Chain of ITK (Q08881 whole entry): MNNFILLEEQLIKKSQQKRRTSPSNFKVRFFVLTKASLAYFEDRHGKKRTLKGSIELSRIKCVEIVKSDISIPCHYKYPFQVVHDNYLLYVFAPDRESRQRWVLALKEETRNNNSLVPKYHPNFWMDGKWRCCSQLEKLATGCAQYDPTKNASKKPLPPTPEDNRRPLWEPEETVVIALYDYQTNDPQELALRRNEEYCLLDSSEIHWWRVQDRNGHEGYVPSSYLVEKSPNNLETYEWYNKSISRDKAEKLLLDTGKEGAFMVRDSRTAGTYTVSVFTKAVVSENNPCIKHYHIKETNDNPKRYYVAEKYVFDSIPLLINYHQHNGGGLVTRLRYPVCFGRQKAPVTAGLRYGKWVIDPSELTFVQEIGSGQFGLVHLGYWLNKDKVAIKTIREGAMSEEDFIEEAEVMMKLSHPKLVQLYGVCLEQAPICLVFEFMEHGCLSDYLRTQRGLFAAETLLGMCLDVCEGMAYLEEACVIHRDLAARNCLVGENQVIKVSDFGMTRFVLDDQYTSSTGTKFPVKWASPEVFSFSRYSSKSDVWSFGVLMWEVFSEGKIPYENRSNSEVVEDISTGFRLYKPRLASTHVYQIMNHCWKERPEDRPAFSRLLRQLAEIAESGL

As to `C=CC(=O)N1CCN(C(=O)c2cc(Sc3cnc(NC(=O)c4cocn4)s3)c(C)cc2OC)CC1` [Compound 92], the IC50 at ITK is under 10 nM; against JAK3, 100 to 1000 nM; on BTK, 100 to 1000 nM; on TXK, 100 to 1000 nM. Further, the TXK/ITK at TXK came to 19.123.

In the case of `C=CC(=O)N1CCCN(C(=O)c2cc(Cc3cnc(NC(=O)C4CC4)s3)c(C)cc2OC)C[C@H]1C` [Compound 128], the IC50 was 10 to 100 nM on ITK, at least 10000 nM at JAK3, 100 to 1000 nM against BTK and 100 to 1000 nM at TXK. On TXK, the TXK/ITK is 12.8.

For `C=CC(=O)N1CCN(C(=O)c2cc(Sc3cnc(NC(C)=O)s3)c(C)cc2OC)CC1(C)C` [Compound 6], the IC50 against ITK was in the range of 10 to 100 nM; at JAK3, 1000 to 10000 nM; against BTK it was 1000 to 10000 nM; against TXK it was 100 to 1000 nM. Also, the TXK/ITK on TXK amounted to 5.9566.

For the compound `C=CC(=O)N1CCCN(C(=O)c2cc(Sc3cnc(NC(=O)c4ccsc4)s3)c(C)cc2OC)C[C@H]1C(C)C` [Compound 149, (R)-N-(5-((5-(4-acryloyl-3-isopropyl-1,4-diazepane-l-carbonyl)-4-methoxy-2-methylphenyl)thio)thiazol-2-yl)thiophene-3-carboxamide], the 50% inhibitory concentration (IC50) against ITK was under 10 nM; against JAK3, at least 10000 nM; at BTK, 10 to 100 nM; against TXK, 100 to 1000 nM. Also, the TXK/ITK at TXK was 171.45.

With `C=CC(=O)N1CCN(C(=O)c2cc(Sc3cnc(NC(=O)C4CC4)s3)ccc2OC)C[C@H]1C` [Compound 79], the IC50 is 10 to 100 nM against ITK, 100 to 1000 nM on JAK3, at least 10000 nM against BTK and 100 to 1000 nM at TXK. Besides, the TXK/ITK at TXK worked out at 21.331.

Consider `C=CC(=O)N1CCN(C(=O)c2cc(Sc3cnc(NC(=O)c4cnn(C)c4)s3)c(C)cc2OC)CC1` [Compound 91], for which the IC50 against ITK is under 10 nM; on JAK3, 100 to 1000 nM; on BTK, 10 to 100 nM; against TXK, 10 to 100 nM. In addition, the TXK/ITK at TXK was found to be 20.093.

On to `C=CC(=O)N1CCN(C(=O)c2cc(Sc3cnc(NC(=O)c4cnsc4)s3)c(C)cc2OC)C[C@H]1CC` [Compound 114], for which the IC50 on ITK was under 10 nM; against JAK3, 1000 to 10000 nM; on BTK, 100 to 1000 nM; against TXK, 10 to 100 nM. For the same compound, the TXK/ITK at TXK was 30.1.

Regarding `C=CC(=O)N1CCCN(C(=O)c2cc(Sc3cnc(NC(=O)C4CC4)s3)c(C)cc2F)C[C@H]1C` [Compound 60], the IC50 was 10 to 100 nM on ITK, at least 10000 nM against JAK3, at least 10000 nM at BTK and 1000 to 10000 nM against TXK. Moreover, the TXK/ITK at TXK was 21.785.

For the compound `C=CC(=O)N1CCN(C(=O)c2cc(Sc3cnc(NC(=O)c4ccsc4)s3)c(C)cc2OC)C[C@H]1C#N` [Compound 156, (S)-N-(5-((5-(4-acryloyl-3-cyanopiperazine-1-carbonyl)-4-methoxy-2-methylphenyl)thio)thiazol-2-yl)thiophene-3-carboxamide], the IC50 against ITK, on JAK3, against BTK and against TXK was under 10 nM in each case. The TXK/ITK at TXK is 3.09.

Regarding `C=CC(=O)N1CCCN(C(=O)c2cc(Sc3cnc(NC(C)=O)s3)c(C)cc2OC)CC1` [Compound 26], the IC50 fell in the range of 10 to 100 nM against ITK, 1000 to 10000 nM at JAK3, 1000 to 10000 nM against BTK and 100 to 1000 nM on TXK. The TXK/ITK at TXK was found to be 26.486.

Consider `C=CC(=O)N1CCCN(C(=O)c2cc(Sc3cnc(NC(=O)c4cccc(CN[C@H](C)C(C)(C)C)c4)s3)c(C)cc2OC)CC1` [Compound 56], for which the IC50 against ITK is under 10 nM; at JAK3 it was 1000 to 10000 nM; at BTK, 100 to 1000 nM; against TXK, 1000 to 10000 nM. Further, on TXK, the TXK/ITK is given as 168.17.

As to `C=CC(=O)N1CCN(C(=O)c2cc(Sc3cnc(NC(=O)c4cnn(C)c4)s3)c(C)cc2C)CC1` [Compound 108], the IC50 on ITK is under 10 nM; on JAK3, 100 to 1000 nM; on BTK, 100 to 1000 nM; against TXK, 10 to 100 nM. The TXK/ITK on TXK was determined as 12.1.

As for `C=CC(=O)N1CCN(C(=O)c2cc(Sc3cnc(NC(=O)c4cnn(CCN(C)C)c4)s3)c(C)cc2OC)C[C@H]1CC` [Compound 116], the IC50 at ITK was under 10 nM; against JAK3 it was 1000 to 10000 nM; on BTK, 100 to 1000 nM; on TXK, 10 to 100 nM. Besides, the TXK/ITK on TXK came out at 23.3.

For the compound `C=CC(=O)N1CCCN(C(=O)c2cc(Sc3cnc(NC(=O)N(C)C)s3)c(C)cc2OC)C[C@H]1C` [Compound 110], the IC50 at ITK was 100 to 1000 nM; at JAK3, 1000 to 10000 nM; against BTK, at least 10000 nM; against TXK, at least 10000 nM. In addition, the TXK/ITK at TXK stood at 46.6.

`C=CC(=O)N1CCN(C(=O)c2cc(Sc3cnc(NC(=O)c4cccc(CN(C)C)c4)s3)c(C)cc2C)C[C@H]1CC` [Compound 129]: the IC50 is under 10 nM at ITK, 100 to 1000 nM against JAK3, 10 to 100 nM at BTK and 10 to 100 nM on TXK. In addition, the TXK/ITK on TXK is 46.0.

In the case of `C=CC(=O)N1CCCN(C(=O)c2cc(C)c(C)c(Sc3cnc(NC(=O)C4CC4)s3)c2)C[C@H]1C` [Compound 64], the IC50 against ITK is 100 to 1000 nM; against JAK3, at least 10000 nM; at BTK, at least 10000 nM; on TXK, 1000 to 10000 nM. Also, the TXK/ITK on TXK is given as 11.944.

Consider `C=CC(=O)N1CCN(C(=O)c2cc(Sc3cnc(NC(=O)c4ccc(N5CCN(C(=O)OC(C)(C)C)CC5)cc4)s3)c(C)cc2OC)CC1` [Compound 40], for which the IC50 on ITK was under 10 nM; on JAK3, 100 to 1000 nM; against BTK it was 100 to 1000 nM; at TXK it was 10 to 100 nM. At TXK, the TXK/ITK is recorded as 14.491.

In the case of `C=CC(=O)N1[C@@H]2CC[C@H]1CN(C(=O)c1cc(Sc3cnc(NC(=O)c4ccsc4)s3)c(C)cc1OC)C2` [Compound 155, N-(5-((5-((1R, 5S)-8-acryloyl-3,8-diazabicyclo[3.2.1]octane-3-carbonyl)-4-methoxy-2-methylphenyl)thio)thiazol-2-yl)thiophene-3-carboxamide], the IC50 at ITK is under 10 nM; against JAK3 it was 10 to 100 nM; against BTK, under 10 nM; at TXK, under 10 nM. Besides, the TXK/ITK on TXK turned out to be 2.73.

`C=CC(=O)N1CCN(C(=O)c2cc(Sc3cnc(NC(=O)c4cccc(CN(C)C)c4)s3)c(C)cc2C)C[C@H]1C#N` [Compound 125]: the IC50 is under 10 nM against ITK, under 10 nM against JAK3, 10 to 100 nM against BTK and under 10 nM against TXK. For the same compound, at TXK, the TXK/ITK was determined as 2.3.

Consider `C=CC(=O)N1CCCN(C(=O)c2cc(Sc3cnc(NC(=O)c4cccc(CN5CCOCC5)c4)s3)c(C)cc2OC)CC1` [Compound 49], for which the IC50 was in the range of 10 to 100 nM on ITK, 1000 to 10000 nM against JAK3, 1000 to 10000 nM at BTK and 1000 to 10000 nM at TXK. The TXK/ITK on TXK came out at 37.652.

For `C=CC(=O)N1CC[C@@H](N(C)C(=O)c2cc(Sc3cnc(NC(=O)C4CC4)s3)c(C)cc2OC)C1` [Compound 27], the IC50 at ITK, on JAK3, against BTK and at TXK was under 10 nM each time. Further, the TXK/ITK on TXK worked out at 2.0165.

Regarding `C=CC(=O)N1CCCN(C(=O)c2cc(Sc3cnc(NC(=O)C4CCC4)s3)c(C)cc2OC)C[C@H]1C` [Compound 86], the IC50 against ITK was 10 to 100 nM; against JAK3 it was at least 10000 nM; on BTK, at least 10000 nM; against TXK, 1000 to 10000 nM. Further, the TXK/ITK at TXK was 227.64.

For the compound `C=CC(=O)N1CCCN(C(=O)c2cc(Sc3cnc(NC(=O)CN(C)C)s3)c(C)cc2OC)CC1` [Compound 35], the IC50 was 100 to 1000 nM on ITK, at least 10000 nM on JAK3, at least 10000 nM on BTK and at least 10000 nM at TXK. For the same compound, the TXK/ITK on TXK was found to be 48.433.

On to `C=CC(=O)N1CCC2(C1)CN(C(=O)c1cc(Sc3cnc(NC(=O)C4CC4)s3)c(C)cc1OC)C2` [Compound 46], for which the IC50 against ITK was under 10 nM; against JAK3, 100 to 1000 nM; on BTK it was 10 to 100 nM; at TXK, under 10 nM. Moreover, the TXK/ITK on TXK is recorded as 3.4072.

Take `C=CC(=O)N1CCCN(C(=O)c2cc(Sc3cnc(NC(=O)C4CC4)s3)cc(C)c2C)C[C@H]1C` [Compound 63]: the IC50 on ITK was 100 to 1000 nM; at JAK3 it was at least 10000 nM; against BTK it was at least 10000 nM; against TXK, 1000 to 10000 nM. Further, at TXK, the TXK/ITK was 61.086.

For `C=CC(=O)N1CCN(C(=O)c2cc(Sc3cnc(Nc4ccccn4)s3)c(C)cc2OC)CC1` [Compound 98], the IC50 was under 10 nM on ITK, 10 to 100 nM against JAK3, under 10 nM at BTK and under 10 nM at TXK. Further, on TXK, the TXK/ITK was 8.2157.

Regarding `C=CC(=O)N1CCN(C(=O)c2cc(Sc3cnc(NC(=O)C4CC4)s3)c(C)cc2C)C[C@H]1C` [Compound 75], the results for the IC50 against ITK, against JAK3 and against TXK were under 10 nM, 100 to 1000 nM and 10 to 100 nM, respectively.

For the compound `C=CC(=O)N1C[C@H]2CN(C(=O)c3cc(Sc4cnc(NC(=O)C5CC5)s4)c(C)cc3OC)C[C@H]21` [Compound 52], the IC50 against ITK is under 10 nM; against JAK3, 1000 to 10000 nM; against TXK, 10 to 100 nM.

As for `C=CC(=O)N1CCCN(C(=O)c2cc(Sc3cnc(NC(=O)C4CC4)s3)c(C)cc2OC)C[C@@H]1C` [Compound 71], the IC50 against JAK3 lay within 1000 to 10000 nM; against BTK, 1000 to 10000 nM; on TXK it was 100 to 1000 nM.
